Test results taken from ChEMBL document CHEMBL1201862, “PubChem BioAssay data set” (2004).
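Method: 48-hour compound exposure of cells in 96-well plates, five concentrations, linear interpolation of endpoints. GI50 is the concentration that inhibits growth by half.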 Activity calls are given as the source filed them. Cut-off read from the data, not from the text of the source: active = GI50 up to about 1.1 µM and inactive = higher.

Experiments:
Experiment in all cases: inhibition of tumour cell growth, NCI panel, 48 h
PC-3 = tested on: PC-3
SNB-75 = tested on: SNB-75
K562 = tested on: K562
M14 = tested on: M14
HT-29 = tested on: HT-29
MDA-N = tested on: MDA-N
NCI/ADR-RES = tested on: NCI/ADR-RES
SN12C = tested on: SN12C
RXF 393 = tested on: RXF 393
KM12 = tested on: KM12
T47D = tested on: T47D
U-251 = tested on: U-251
A549 = tested on: A549
CCRF-CEM = tested on: CCRF-CEM
Hs-578T = tested on: Hs-578T

| SMILES | GI50 (PC-3) | GI50 (SNB-75) | GI50 (K562) | GI50 (M14) | GI50 (HT-29) | GI50 (MDA-N) | GI50 (NCI/ADR-RES) | GI50 (SN12C) | GI50 (RXF 393) | GI50 (KM12) | GI50 (T47D) | GI50 (U-251) | GI50 (A549) | GI50 (CCRF-CEM) | GI50 (Hs-578T) |
| --- | --- | --- | --- | --- | --- | --- | --- | --- | --- | --- | --- | --- | --- | --- | --- |
| COc1cc(/C=C2\C[C@H]3[C@@H]4CCc5cc(O)ccc5[C@H]4CC[C@]3(C)C2=O)cc(OC)c1OC | 10.1 µM (inactive) | 12.2 µM (inactive) | 12.3 µM (inactive) | 16.8 µM (inactive) | 12.5 µM (inactive) | 15.6 µM (inactive) | 16.8 µM (inactive) | 15.1 µM (inactive) | 9.57 µM (inactive) | 14 µM (inactive) | 13.5 µM (inactive) | 15.8 µM (inactive) | 15.6 µM (inactive) | 12.9 µM (inactive) | – |
| COc1ccc2c(c1)c(=Cc1ccc(N(C)C)cc1)c1cc(-c3ccccc3)[n+](C)n12 | 0.322 µM (active) | 0.00269 µM (active) | 0.214 µM (active) | 0.312 µM (active) | 0.171 µM (active) | 0.378 µM (active) | 3.66 µM (inactive) | 0.345 µM (active) | 0.41 µM (active) | 0.448 µM (active) | – | 0.301 µM (active) | 0.643 µM (active) | 0.269 µM (active) | 0.124 µM (active) |
| N=C(N)N/N=C/c1c(-c2ccc(Cl)c([N+](=O)[O-])c2)nc2sc(Cl)cn12 | 1.88 µM (inactive) | – | 0.617 µM (active) | 2.79 µM (inactive) | 2.36 µM (inactive) | – | 46 µM (inactive) | 2.32 µM (inactive) | 1.77 µM (inactive) | 2.56 µM (inactive) | 1.23 µM (inactive) | 2.95 µM (inactive) | 2.47 µM (inactive) | 0.565 µM (active) | 2.33 µM (inactive) |
| CC[C@@H]1ON(C)[C@H]2CN(C)C(=O)[C@@H]12 | > 100 µM (inactive) | – | > 100 µM (inactive) | > 100 µM (inactive) | > 100 µM (inactive) | > 100 µM (inactive) | > 100 µM (inactive) | > 100 µM (inactive) | – | – | > 100 µM (inactive) | > 100 µM (inactive) | > 100 µM (inactive) | > 100 µM (inactive) | > 100 µM (inactive) |
| CC12C(=O)OC(=O)C1(C)C1C=CC2O1 (stereo unspecified) | > 100 µM (inactive) | 14.9 µM (inactive) | > 100 µM (inactive) | 64.9 µM (inactive) | > 100 µM (inactive) | > 100 µM (inactive) | > 100 µM (inactive) | > 100 µM (inactive) | 40.6 µM (inactive) | > 100 µM (inactive) | – | > 100 µM (inactive) | > 100 µM (inactive) | > 100 µM (inactive) | 29.1 µM (inactive) |
| CC(C)(C)[Si](C)(C)OC1(CCc2ccccc2OS(=O)(=O)C(F)(F)F)CCCC=C1COCc1ccccc1 (stereo unspecified) | 3.51 µM (inactive) | 8.61 µM (inactive) | 5.71 µM (inactive) | – | – | – | > 100 µM (inactive) | – | 48.2 µM (inactive) | 14 µM (inactive) | 6.35 µM (inactive) | 5 µM (inactive) | 0.325 µM (active) | 5.19 µM (inactive) | – |
| COc1ccc(NC(C)=O)cc1N1C(=O)/C(=C\c2cc(OC)c(OC)c(OC)c2)S(=O)(=O)C1c1ccccc1 (stereo unspecified) | 39.3 µM (inactive) | 39 µM (inactive) | 28.5 µM (inactive) | 69.5 µM (inactive) | 47.2 µM (inactive) | 34.1 µM (inactive) | 73.6 µM (inactive) | 50.8 µM (inactive) | 74.6 µM (inactive) | 46.7 µM (inactive) | 38.3 µM (inactive) | 46.8 µM (inactive) | 61.7 µM (inactive) | 29.3 µM (inactive) | – |
| COC(=O)C(CCCCNC(=O)CNC(=O)OCc1ccccc1)NC(=O)C(CCCCNC(=O)CNC(=O)OCc1ccccc1)NC(=O)OCc1ccccc1 (stereo unspecified) | 96.2 µM (inactive) | 62.7 µM (inactive) | > 100 µM (inactive) | > 100 µM (inactive) | > 100 µM (inactive) | 51.6 µM (inactive) | – | > 100 µM (inactive) | – | – | 20.3 µM (inactive) | 54 µM (inactive) | > 100 µM (inactive) | 42.8 µM (inactive) | – |
| Cc1n[nH]c(=O)n1N=C(c1ccccc1)c1ccccc1 | > 100 µM (inactive) | – | > 100 µM (inactive) | > 100 µM (inactive) | > 100 µM (inactive) | > 100 µM (inactive) | > 100 µM (inactive) | > 100 µM (inactive) | 1.26 µM (inactive) | > 100 µM (inactive) | – | > 100 µM (inactive) | > 100 µM (inactive) | > 100 µM (inactive) | > 100 µM (inactive) |
| CC(C)n1c(=O)n(-c2ccccc2)n(C(C)(C)C)c1=O | > 100 µM (inactive) | > 100 µM (inactive) | > 100 µM (inactive) | > 100 µM (inactive) | > 100 µM (inactive) | > 100 µM (inactive) | > 100 µM (inactive) | > 100 µM (inactive) | > 100 µM (inactive) | > 100 µM (inactive) | – | > 100 µM (inactive) | > 100 µM (inactive) | > 100 µM (inactive) | > 100 µM (inactive) |
| CN(C)CC1CN=C(N)O1 (stereo unspecified) | > 100 µM (inactive) | – | > 100 µM (inactive) | > 100 µM (inactive) | – | > 100 µM (inactive) | > 100 µM (inactive) | > 100 µM (inactive) | > 100 µM (inactive) | > 100 µM (inactive) | – | > 100 µM (inactive) | > 100 µM (inactive) | > 100 µM (inactive) | – |
| CC(C)CCCC(C)[C@H]1CC[C@H]2[C@@H]3CC[C@H]4C[C@@H](CCC=C(c5cc(Cl)c(O)c(C(=O)O)c5)c5cc(Cl)c(O)c(C(=O)O)c5)CC[C@]4(C)[C@H]3CC[C@]12C (stereo partly specified) | > 50 µM (inactive) | > 50 µM (inactive) | 31.1 µM (inactive) | > 50 µM (inactive) | > 50 µM (inactive) | – | > 50 µM (inactive) | > 50 µM (inactive) | > 50 µM (inactive) | > 50 µM (inactive) | > 50 µM (inactive) | > 50 µM (inactive) | > 50 µM (inactive) | > 50 µM (inactive) | > 50 µM (inactive) |
| Cn1c2ccccc2c2c3c(c4c5ccccc5n(C)c4c21)C(=O)c1ccccc1C3=O | 45.8 µM (inactive) | 35.3 µM (inactive) | – | 76.9 µM (inactive) | > 100 µM (inactive) | 72.8 µM (inactive) | 61.1 µM (inactive) | 61.2 µM (inactive) | 16.3 µM (inactive) | 86.9 µM (inactive) | 13.2 µM (inactive) | 17.9 µM (inactive) | 59.4 µM (inactive) | > 100 µM (inactive) | – |
| Oc1cc(O)c2ccc(-c3ccc(O)c(O)c3)[o+]c2c1 | > 100 µM (inactive) | > 100 µM (inactive) | > 100 µM (inactive) | > 100 µM (inactive) | > 100 µM (inactive) | > 100 µM (inactive) | > 100 µM (inactive) | > 100 µM (inactive) | 63.8 µM (inactive) | > 100 µM (inactive) | – | > 100 µM (inactive) | > 100 µM (inactive) | 67.9 µM (inactive) | > 100 µM (inactive) |
| c1ccc(C2=C(c3ccccc3)Sc3nnc(CCCCCCCCc4nnc5n4NC(c4ccccc4)=C(c4ccccc4)S5)n3N2)cc1 | 41.4 µM (inactive) | 63.2 µM (inactive) | 25 µM (inactive) | 29.8 µM (inactive) | 31.8 µM (inactive) | – | 45.8 µM (inactive) | 77.3 µM (inactive) | 50.4 µM (inactive) | 44.1 µM (inactive) | 24.7 µM (inactive) | 45.2 µM (inactive) | 34.7 µM (inactive) | 20.9 µM (inactive) | 73.5 µM (inactive) |
| O=C1NC2NC3NC(=O)NC3NC2N1 (stereo unspecified) | > 100 µM (inactive) | 76.4 µM (inactive) | > 100 µM (inactive) | > 100 µM (inactive) | > 100 µM (inactive) | > 100 µM (inactive) | > 100 µM (inactive) | > 100 µM (inactive) | > 100 µM (inactive) | > 100 µM (inactive) | – | > 100 µM (inactive) | > 100 µM (inactive) | > 100 µM (inactive) | – |
| O=C1CC(C(COCc2ccccc2)OCc2ccccc2)CC(=O)N1 (stereo unspecified) | 83.2 µM (inactive) | – | > 100 µM (inactive) | > 100 µM (inactive) | > 100 µM (inactive) | > 100 µM (inactive) | – | > 100 µM (inactive) | – | > 100 µM (inactive) | 86.3 µM (inactive) | > 100 µM (inactive) | > 100 µM (inactive) | > 100 µM (inactive) | > 100 µM (inactive) |
| O=C(COc1ccc(OCC(=O)NNC2=NC(c3cc(F)c(Cl)cc3Cl)CS2)c(Cl)c1)NNC1=NC(c2cc(F)c(Cl)cc2Cl)CS1 (stereo unspecified) | 22.1 µM (inactive) | – | 24 µM (inactive) | 74 µM (inactive) | 25.6 µM (inactive) | 28.4 µM (inactive) | 44.8 µM (inactive) | 20.7 µM (inactive) | 19.8 µM (inactive) | 44.4 µM (inactive) | – | 14.4 µM (inactive) | 14.3 µM (inactive) | 28.6 µM (inactive) | 20.6 µM (inactive) |
| C=C1C[C@@H]2CC[C@@]34CC5O[C@H]6C(O[C@H]7CC[C@H](CC(=O)O[C@@H]8[C@@H](C)[C@@H]9O[C@@H]%10C[C@]%11(C[C@@H]%12O[C@]%13(C[C@H](C)[C@@H]%14O[C@@H]%15CC(C(COC(C)=O)OC(C)=O)O[C@@H]%15C[C@@H]%14O%13)C[C@H](C)[C@@H]%12O%11)O[C@@H]%10C[C@@H]9O[C@H]8CC8O[C@@H](CC[C@@H]1O2)C[C@@H](C)C8(O)CO)O[C@@H]7[C@@H]6O3)[C@H]5O4 (stereo partly specified) | 0.399 µM (active) | 0.336 µM (active) | 0.513 µM (active) | 0.587 µM (active) | – | – | > 1 µM (active) | > 0.838 µM (active) | 0.0359 µM (active) | 0.327 µM (active) | > 0.451 µM (active) | 0.436 µM (active) | 0.413 µM (active) | 0.995 µM (active) | 0.272 µM (active) |
